The target in the test is PIK3CB;PIK3CG;PIK3CD;PIK3CA (human) (UniProt P48736). Kind of test: Inhibition of PIK3CA/PIK3CB/PIK3CD/PIK3CG Kinase Activity.

By IC50 is commonly meant the concentration at which inhibition is half-maximal.

`COC[C@H]1OC(=O)/C(=C/NCCCN(C)C)C2=C(O)C(=O)C3=C([C@H](OC(C)=O)C[C@]4(C)C(=O)CC[C@@H]34)[C@]21C` returned an IC50 of 1 nM. The result for `COC[C@H]1OC(=O)/C(=C/N(C)Cc2ccccc2)C2=C(O)C(=O)C3=C([C@H](OC(C)=O)C[C@]4(C)C(=O)CC[C@@H]34)[C@]21C` reads 0.8 nM; that for `COC[C@H]1OC(=O)/C(=C/Sc2ccccc2)C2=C(O)C(=O)C3=C([C@H](OC(C)=O)C[C@]4(C)C(=O)CC[C@@H]34)[C@]21C`, 1 nM; that for `COC[C@H]1OC(=O)/C(=C/N(Cc2ccccc2)Cc2ccccc2)C2=C(O)C(=O)C3=C([C@H](OC(C)=O)C[C@]4(C)C(=O)CC[C@@H]34)[C@]21C`, 0.3 nM. To `C=CCN(/C=C1/C(=O)O[C@H](COC)[C@@]2(C)C1=C(O)C(=O)C1=C2[C@H](OC(C)=O)C[C@]2(C)C(=O)CC[C@@H]12)CC=C` belongs 0.1 nM.

The compound `COC[C@H]1OC(=O)/C(=C/N)C2=C(O)C(=O)C3=C([C@H](OC(C)=O)C[C@]4(C)C(=O)CC[C@@H]34)[C@]21C` gave an IC50 of 2 nM. To `COC[C@H]1OC(=O)/C(=C/SC(C)C)C2=C(O)C(=O)C3=C([C@H](OC(C)=O)C[C@]4(C)C(=O)CC[C@@H]34)[C@]21C` belongs 0.1 nM; to `COC[C@H]1OC(=O)/C(=C/NCC(N)=O)C2=C(O)C(=O)C3=C([C@H](OC(C)=O)C[C@]4(C)C(=O)CC[C@@H]34)[C@]21C`, 10 nM.

`C=CCN/C=C1/C(=O)O[C@H](COC)[C@@]2(C)C1=C(O)C(=O)C1=C2[C@H](OC(C)=O)C[C@]2(C)C(=O)CC[C@@H]12` yielded a half-maximal inhibitory concentration (IC50) of 7.5 nM. To `COC[C@H]1OC(=O)/C(=C/NCCc2ccccc2)C2=C(O)C(=O)C3=C([C@H](OC(C)=O)C[C@]4(C)C(=O)CC[C@@H]34)[C@]21C` belongs 2 nM; to `COC[C@H]1OC(=O)/C(=C/N2CCCC2)C2=C(O)C(=O)C3=C([C@H](OC(C)=O)C[C@]4(C)C(=O)CC[C@@H]34)[C@]21C`, 1.1 nM.

These data come from the Kinase Knowledgebase extract (Sharma et al. 2016).
